In patent US9492368B2, “External preparation for skin” (HAYASHIBARA CO., LTD., priority 2011, dated 2016):

Assay: Solubility in deuterium water
Type: physicochemical
Protocol: For reference, the above nigerosyl adenosine was observed as a minor peak with a retention time of about 22 to 23 min between the elution peak of adenosine and that of 3′-glucosyladenosine other than the elution peaks of 5′- and 3′-glucosyladenosines and adenosine. When the fraction corresponding to such a minor peak was collected and subjected to mass spectrum (MS) analysis in usual manner, it was calculated to have a molecular weight of […] and judged to be a compound composed of two molecules of glucose bound to adenosine. Using the collected fraction and based on the chemical shift (see Table 13) of the carbons and protons of the fraction on MNR analysis under the following conditions, the substance contained in the fraction was identified as 5′-nigerosyladenosine (α-D-glucopyranosyl-(1→3)-α-D-glucopyranosyl-(1→5′)-adenosine; 5′-α-nigerosyladenosine). Since 5′-nigerosyladenosine dissolves in deuterium water in an amount of at least 6 w/v %, it has a higher solubility in aqueous media than 3′-glucosyladenosine. The carbon chemical shifts of adenosine and nigerose were obtained from the spectrum data base of organic compounds opened by The National Institute of Advanced Industrial Science and Technology (AIST) (SDBS; http://riodb01.ibase.aist.go.jp/sdbs/cgi-bin/direct_frame_top.cgi).

Amount that dissolves in deuterium water: at least 6 w/v %
Structure (SMILES): Nc1ncnc2c1ncn2[C@@H]1O[C@H](CO[C@H]2O[C@H](CO)[C@@H](O)[C@H](O[C@H]3O[C@H](CO)[C@@H](O)[C@H](O)[C@H]3O)[C@H]2O)[C@@H](O)[C@H]1O [5′-nigerosyladenosine, α-D-glucopyranosyl-(1→3)-α-D-glucopyranosyl-(1→5′)-adenosine]
